According to ChEMBL document CHEMBL1201862, “PubChem BioAssay data set” (2004):
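Cells were grown in 96-well plates and exposed to each compound for 48 hours at five concentrations; endpoints were interpolated linearly between bracketing concentrations, or set to the highest concentration if not reached. Here, GI50 denotes the concentration required for 50% inhibition of growth.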 Activity calls are given as the source filed them. No stated cut-off is given here; in the data, active = GI50 up to about 1.1 µM and inactive = higher.

Assays:
Experiment in all cases: growth of human tumour cells (NCI), 48 h
A498 = tested on: A498
COLO 205 = tested on: COLO 205
HCT-116 = tested on: HCT-116
HCT-15 = tested on: HCT-15
HT-29 = tested on: HT-29
KM12 = tested on: KM12
LOX IMVI = tested on: LOX IMVI
M19-MEL = tested on: M19-MEL
OVCAR-5 = tested on: OVCAR-5
RPMI-8226 = tested on: RPMI-8226
SF-268 = tested on: SF-268
SK-MEL-28 = tested on: SK-MEL-28
SN12C = tested on: SN12C
TK-10 = tested on: TK-10
U-251 = tested on: U-251
UACC-257 = tested on: UACC-257
A549 = tested on: A549
HL-60 = tested on: HL-60
Hs-578T = tested on: Hs-578T
T47D = tested on: T47D

SMILES | GI50 (A498) | GI50 (COLO 205) | GI50 (HCT-116) | GI50 (HCT-15) | GI50 (HT-29) | GI50 (KM12) | GI50 (LOX IMVI) | GI50 (M19-MEL) | GI50 (OVCAR-5) | GI50 (RPMI-8226) | GI50 (SF-268) | GI50 (SK-MEL-28) | GI50 (SN12C) | GI50 (TK-10) | GI50 (U-251) | GI50 (UACC-257) | GI50 (A549) | GI50 (HL-60) | GI50 (Hs-578T) | GI50 (T47D)
COc1ccccc1NC(=O)C1=C(C)NC(C)=C(C(=O)Nc2ccccc2OC)C1c1ccc(C)cc1 | 23.3 µM (inactive) | 12.6 µM (inactive) | 29.9 µM (inactive) | 33.1 µM | > 100 µM (inactive) | 43 µM (inactive) | > 100 µM (inactive) | 42.5 µM (inactive) | 70.3 µM (inactive) | 37.8 µM (inactive) | > 100 µM (inactive) | > 100 µM (inactive) | > 100 µM (inactive) | 69.5 µM (inactive) | > 100 µM (inactive) | 51.5 µM (inactive) | – | – | – | –
COC1=CC(=O)[C@]2(C)[C@H](C1=O)C(C)[C@H]2c1ccc(OC)cc1 (some centres not stated) | > 100 µM (inactive) | > 100 µM (inactive) | – | > 100 µM | > 100 µM (inactive) | > 100 µM (inactive) | > 100 µM (inactive) | > 100 µM (inactive) | > 100 µM (inactive) | > 100 µM (inactive) | > 100 µM (inactive) | > 100 µM (inactive) | – | > 100 µM (inactive) | > 100 µM (inactive) | 91.6 µM (inactive) | > 100 µM (inactive) | > 100 µM (inactive) | – | –
CCC(=O)N(O)C(C)(C)C | – | > 100 µM (inactive) | > 100 µM (inactive) | > 100 µM | > 100 µM (inactive) | > 100 µM (inactive) | > 100 µM (inactive) | > 100 µM (inactive) | > 100 µM (inactive) | > 100 µM (inactive) | > 100 µM (inactive) | > 100 µM (inactive) | > 100 µM (inactive) | > 100 µM (inactive) | > 100 µM (inactive) | > 100 µM (inactive) | > 100 µM (inactive) | > 100 µM (inactive) | – | –
CCOC(=O)c1cccc(/N=N/c2nc[nH]c2/C=C/C(=O)OC)c1 | 22.6 µM (inactive) | 4.39 µM (inactive) | 4.17 µM (inactive) | 5.13 µM | 6.98 µM (inactive) | 15.8 µM (inactive) | 7.43 µM (inactive) | – | 76.6 µM (inactive) | 9.02 µM (inactive) | 8.79 µM (inactive) | 18.1 µM (inactive) | 5.97 µM (inactive) | 28.4 µM (inactive) | 6.73 µM (inactive) | 12.9 µM (inactive) | 39.5 µM (inactive) | 3.37 µM (inactive) | 53.5 µM (inactive) | 9.95 µM (inactive)
C[Si](C)(C)/N=C1\N2C(=NC1(C(F)(F)F)C(F)(F)F)Sc1ccccc12 | > 50 µM (inactive) | > 50 µM (inactive) | > 50 µM (inactive) | > 50 µM | > 50 µM (inactive) | > 50 µM (inactive) | > 50 µM (inactive) | > 50 µM (inactive) | > 50 µM (inactive) | > 50 µM (inactive) | > 50 µM (inactive) | – | > 50 µM (inactive) | > 50 µM (inactive) | > 50 µM (inactive) | > 50 µM (inactive) | > 50 µM (inactive) | > 50 µM (inactive) | – | –
O=C(O)C(SC1=NC(=O)C2(NN1)c1ccccc1-c1ccccc12)SC1=NC(=O)C2(NN1)c1ccccc1-c1ccccc12 | > 10 µM (inactive) | > 10 µM (inactive) | > 10 µM (inactive) | > 10 µM | > 10 µM (inactive) | > 10 µM (inactive) | 9.02 µM (inactive) | – | > 10 µM (inactive) | 7.33 µM (inactive) | > 10 µM (inactive) | > 10 µM (inactive) | > 10 µM (inactive) | > 10 µM (inactive) | > 10 µM (inactive) | > 10 µM (inactive) | > 10 µM (inactive) | 5.14 µM (inactive) | > 10 µM (inactive) | 6.89 µM (inactive)
COc1cc2ccccc2oc1=O | > 100 µM (inactive) | > 100 µM (inactive) | > 100 µM (inactive) | > 100 µM | > 100 µM (inactive) | > 100 µM (inactive) | > 100 µM (inactive) | – | > 100 µM (inactive) | > 100 µM (inactive) | 51.6 µM (inactive) | 84.5 µM (inactive) | > 100 µM (inactive) | 77.6 µM (inactive) | > 100 µM (inactive) | > 100 µM (inactive) | > 100 µM (inactive) | 50.8 µM (inactive) | 45.9 µM (inactive) | 1.85 µM (inactive)
O=C(N/N=C\c1c(O)ccc2ccccc12)c1ccncc1 | 2.21 µM (inactive) | 0.82 µM (active) | 0.191 µM (active) | 0.0991 µM | 1.7 µM (inactive) | 2.7 µM (inactive) | 0.301 µM (active) | – | > 6.85 µM (inactive) | 0.364 µM (active) | 0.341 µM (active) | 0.649 µM (active) | 0.231 µM (active) | > 7.23 µM (inactive) | 0.29 µM (active) | 1.22 µM (inactive) | 0.789 µM (active) | 0.518 µM (active) | > 15.3 µM (inactive) | 2.49 µM (inactive)
